The values that follow come from patent US4785017A, “3,4-dihydro-2H-1-benzopyran derivatives” (Hoffmann-La Roche Inc., priority 1984, dated 1988).

Test [1] has as its system SRS-A-induced constriction of the guinea pig ileum. Kind of test: Guinea Pig Ileum, In Vitro: inhibition of SRS-A-induced constriction (SRS-A antagonism). The following applies: SRS-A antagonism; SRS-A at EC50, 37° C., with atropine sulfate and pyrilamine maleate; read-out: In vitro Guinea Pig ileum IC50. As for the experimental part:
(a) Guinea Pig Ileum, In Vitro:
The guinea pig ileum bioassay system has been described by Orange Austen, Adv. Immunol. […] A 1.5 cm segment is removed from animals weighing 300-400 g and suspended in an organ bath containing 10 ml of Tyrodes solution with 10^-6 M atropine sulfate and 10^-6 M pyrilamine maleate. […] The SRS-A utilized in this screen is obtained by challenging chopped lung fragments from actively sensitized guinea pigs with egg albumin, in vitro. A dose-response curve to SRS-A challenge is established for the ileum. […] The drug concentration which inhibits, by 50%, the SRS-A-induced constriction of the guinea pig ileum is determined.

In test [2] the test system is leukotriene E4 induced bronchoconstriction. Kind of test: Guinea Pig Bronchoconstriction, In Vivo (Aerosol), leukotriene E4 challenge. Also on record: species or system guinea pig (Hartley strain). The settings on record: five minute aerosol exposure (% w/v aerosol solution); maximum constrictory dose of leukotriene E4 i.v.; propanolol pretreatment. As to the method:
(b) Guinea Pig Bronchoconstriction, In Vivo (Aerosol):
Male guinea pigs (Hartley strain) weighing 300 to 500 g are anesthetized with urethane (2 g/kg) intraperitoneally and a polyethylene cannula is inserted into the jugular vein for drug administration. Tracheal pressure is recorded from a cannula inserted in the trachea and connected to a Statham pressure transducer. After surgical preparation of the animals, a period of time is allowed for pulmonary functions to stabilize. The test compound is administered according to the following protocol. Propanolol (0.1 mg/kg) is administered intravenously while the animals breathed spontaneously. Five minutes thereafter, the animals are exposed for a five minute period to a 1% (w/v) aerosol solution of test compound (adjusted to an alkaline pH where necessary for drug solubilization) or to distilled water of the appropriate pH (for control purposes). A Monaghan (Model 750) ultrasonic nebulizer is used to administer all test compounds by inhalation. The nebulizer ultrasonic frequency is adjusted to produce particles in the 1-8μ diameter range (average 3μ). Aqueous solutions are prepared freshly and introduced into the chamber of the nebulizer. The output of the nebulizer is made available to the animal by directing a bias flow of aerosol through a Y tube connected to the tracheal cannula. At the end of the exposure period, the animals are paralyzed with succinylcholine (1.2 mg/kg, i.v.) and mechanically respirated (Harvard rodent respirator) at 40 breaths/minute and 2.5 cc tidal volume. Animals are then challenged with a maximum constrictory dose of leukotriene E4 delivered intravenously 30 seconds after administration of the succinylcholine.
The change (cm H2 O) between pre and peak ventilatory pressure readings averaged for three control animals and five drug treated animals. The percent inhibition is calculated from the following formula: [formula] When various drug concentrations are tested, the percent inhibition at each concentration is plotted as log concentration (abscissa) versus percent inhibition (ordinate) and the IC50 is determined from linear regression analysis.

Test [3] deals with leukotriene D4 induced bronchoconstriction. Kind of test: Guinea Pig Bronchoconstriction, In Vivo (Aerosol), leukotriene D4 challenge. Also on record: species or system guinea pig (Hartley strain). The settings on record: aerosol assay with leukotriene E4 replaced with leukotriene D4.
The test system is the same in test [4]. Kind of test: Oral Testing of Leukotriene Antagonists, leukotriene D4 challenge. It counts as in vivo, guinea pig (Hartley strain, Charles River). The following applies: 10 mg/kg by the oral route, two hours prior to challenge with leukotriene D4. As to the method: (c) Oral Testing of Leukotriene Antagonists
Male guinea pigs (Hartley strain, Charles River) weighing 400 to 600 g were anesthetized with urethane (2 g/kg) intraperitoneally and a polyethylene cannula was inserted into the jugular vein for intravenous drug administration. Tracheal pressure (cm water) was recorded from a Statham pressure transducer. After surgical preparation of the animals, a period of time was allowed for spontaneous breathing to stabilize. […] Two minutes later, spontaneous breathing was arrested with succinylcholine chloride (1.2 mg/kg, i.v.) and the animals ventilated with a Harvard (Model #680) small animal respirator set at 40 breaths per minute and 4.0 cc stroke volume. The animals were challenged with a maximum constrictory does of either leukotriene C4 or leukotriene D4 or leukotriene E4 (25 ug/kg, i.v.) at 5 minutes. Control vehicle or test drug (adjusted to an alkaline pH where necessary for drug solubilization) was administered (10 mg/kg, p.o.) two hours prior to challenge with leukotriene. In order to determine the ID50 for a test drug, the dose is varied from 10 mg/kg, p.o. to 100, 50, 30, 20, 5, 3 and 1 mg/kg, p.o.
In order to determine oral duration of action, the time between exposure to test drug and challenge with leukotriene is varied.

pIC50: −log10 of the molar value.

Regarding `CCCc1c(OCCCOc2c(C(C)=O)cc3c(c2CCC)OC(C)(CCC(=O)O)CC3)ccc(C(C)=O)c1O` (racemic) [racemic-6-acetyl-7-[3-(4-acetyl-3-hydroxy-2-n-propylphenoxy)propoxy]-3,4-dihydro-2-methyl-8-n-propyl-2H-1-benzopyran-2-propanoic acid], in test [1], the pIC50 was 7.10. In addition, in test [2], the “Guinea Pig Bronchoconstriction In vivo aerosol - IC50(%)” value was 0.12%.
Turning to `CCCc1c(OCCCOc2cc3c(cc2C(C)=O)CCC(C(=O)O)O3)ccc(C(C)=O)c1O` (racemic) [racemic-6-acetyl-7-[3-(4-acetyl-3-hydroxy-2-propylphenoxy)propoxy]-3,4-dihydro-2H-2-benzopyran-2-carboxylic acid], in test [1], the pIC50 was 7.00. The “Guinea Pig Bronchoconstriction In vivo aerosol - IC50(%)” value in test [2] was 0.20%.
For `CCCc1c(OCCCOc2c(C(C)=O)cc3c(c2CCC)OC(C(=O)O)CC3)ccc(C(C)=O)c1O` (racemic) [racemic-6-acetyl-7-[3-(4-acetyl-3-hydroxy-2-propylphenoxy)propoxy]-3,4-dihydro-8-propyl-2H-1-benzopyran-2-carboxylic acid], in that order: 7.00 and 0.38%.
For `CCCc1c(OCCCCCOc2cc3c(cc2C(C)=O)CCC(C(=O)O)O3)ccc(C(C)=O)c1O` (racemic) [racemic-6-acetyl-7-[5-(4-acetyl-3-hydroxy-2-propylphenoxy)pentyloxy]-3,4-dihydro-2H-1-benzopyran-2-carboxylic acid], the pIC50 in test [1] is 7.22. In addition, in test [2], the “Guinea Pig Bronchoconstriction In vivo aerosol - IC50(%)” value is recorded as 0.052%. Further, in test [3], the “IC50 value in inhibiting bronchoconstriction (aerosol)” value came to 0.0056%.
On to `CCCc1c(OCCCCCOc2cc3c(cc2C(C)=O)CCC(CCCCC(=O)O)O3)ccc(C(C)=O)c1O` (racemic) [racemic-6-acetyl-7-[5-(4-acetyl-3-hydroxy-2-propylphenoxy)pentyloxy]-3,4-dihydro-2H-1-benzopyran-2-pentanoic acid], for which the “inhibition of leukotriene D4 induced bronchoconstriction” value in test [4] is listed as 46±14%.
Consider `CCCc1c(OCCCCCCCOc2cc3c(cc2C(C)=O)CCC(C(=O)O)O3)ccc(C(C)=O)c1O` (racemic) [racemic-6-acetyl-7-[7-(4-acetyl-3-hydroxy-2-propylphenoxy)heptyloxy]-3,4-dihydro-2H-1-benzopyran-2-carboxylic acid], for which, in test [1], the pIC50 was 6.00. Also, the “Guinea Pig Bronchoconstriction In vivo aerosol - IC50(%)” value in test [2] was 1.0%.
For `CCCc1c(OCCCOc2ccc3c(c2CCC)OC(C)(CCC(=O)O)CC3)ccc(C(C)=O)c1O` (racemic) [racemic-7-[3-(4-acetyl-3-hydroxy-2-n-propylphenoxy)propoxy]-3,4-dihydro-2-methyl-8-n-propyl-2H-1-benzopyran-2-propanoic acid], in that order: 6.30 and 0.71%.
For `CCCc1c(OCCCOc2ccc3c(c2)OC(C(=O)O)CC3)ccc(C(C)=O)c1O` (racemic) [racemic-7-[3-(4-acetyl-3-hydroxy-2-propyl)phenoxy)propoxy]-3,4-dihydro-2H-1-benzopyran-2-carboxylic acid] the same measures were 7.22 and 0.14%.
`CCCc1c(OCCCOc2ccc3c(c2CCC)OC(C(=O)O)CC3)ccc(C(C)=O)c1O` (racemic) [racemic-7-[3-(4-acetyl-3-hydroxy-2-propyl)phenoxy)propoxy]-3,4-dihydro-8-propyl-2H-1-benzopyran-2-carboxylic acid]: the pIC50 in test [1] is 7.00. Moreover, in test [2], the “Guinea Pig Bronchoconstriction In vivo aerosol - IC50(%)” value is recorded as 0.20%.
For `CCCc1c(OCCCOc2ccc3c(c2)OC(C)(CCC(=O)O)CC3)ccc(C(C)=O)c1O` (racemic) [racemic-7-[3-(4-acetyl-3-hydroxy-2-propylphenoxy)propoxy]-3,4-dihydro-2-methyl-2H-1-benzopyran-2-propanoic acid] the same measures were 7.00 and above 1.0%.
For `CCCc1c(OCCCOc2ccc3c(c2)OC(CC(=O)O)CC3)ccc(C(C)=O)c1O` (racemic) [racemic-7-[3-(4-acetyl-3-hydroxy-2-propylphenoxy)propoxy]-3,4-dihydro-2H-1-benzopyran-2-acetic acid] the same measures were 7.00 and 0.67%.
For `CCCc1c(OCCCOc2cc3c(cc2C(C)=O)OC(C)(C(=O)O)CC3)ccc(C(C)=O)c1O` (racemic) [racemic-7-acetyl-6-[3-(4-acetyl-3-hydroxy-2-propylphenoxy)propoxy]-3,4-dihydro-2-methyl-2H-1-benzopyran-2-carboxylic acid] the same measures were 6.30 and 1.0%.
In the case of `CCCc1c(OCCCOc2cc3c(cc2C(C)=O)OC(C(=O)O)CC3)ccc(C(C)=O)c1O` (racemic) [racemic-7-acetyl-6-[3-(4-acetyl-3-hydroxy-2-propylphenoxy)propoxy]-3,4-dihydro-2H-1-benzopyran-2-carboxylic acid], the pIC50 in test [1] was 6.70. For the same compound, in test [2], the “Guinea Pig Bronchoconstriction In vivo aerosol - IC50(%)” value is reported as 0.34%.
For `CCCc1c(OCCCOc2ccc3c(c2C(C)=O)OC(C(=O)O)CC3)ccc(C(C)=O)c1O` (racemic) [racemic-8-acetyl-7[3-(4-acetyl-3-hydroxy-2-propylphenoxy)propoxy]-3,4-dihydro-2H-1-benzopyran-2-carboxylic acid] the same measures were 6.52 and 0.59%.
Regarding `CCCc1c(OCCCCCOc2cc3c(cc2C(C)=O)CC[C@H](C(=O)O)O3)ccc(C(C)=O)c1O` [(R)-6-acetyl-7-[5-(4-acetyl-3-hydroxy-2-propylphenoxy)pentyloxy]-3,4-dihydro-2H-1-benzopyran-2-carboxylic acid], the pIC50 in test [1] is 7.00. Besides, the “IC50 value in inhibiting bronchoconstriction (aerosol)” value in test [3] amounted to 0.018%.
For `CCCc1c(OCCCCCOc2cc3c(cc2C(C)=O)CC[C@@H](C(=O)O)O3)ccc(C(C)=O)c1O` [(S)-6-acetyl-7-[5-(4-acetyl-3-hydroxy-2-propylphenoxy)pentyloxy]-3,4-dihydro-2H-1-benzopyran-2-carboxylic acid] the same measures were 7.22 and 0.0018%.
